This note sets out measurements from US20240208992A1, “MACROCYCLES AS CFTR MODULATORS” (Idorsia Pharmaceuticals Ltd, priority 2021, published 2024).

The structures appear in SMILES notation.

The assay deals with human F508del-CFTR (Homo sapiens, UniProt P13569, DEL508-508). As to the kind of experiment: F508del-CFTR cell surface expression (corrector activity), DiscoveRx ß-galactosidase complementation chemiluminescence assay in recombinant U2OS cell line.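 For all read-outs here: U2OS cells co-expressing ProLink-tagged F508del-CFTR and a membrane-anchored enzyme acceptor, where more surface CFTR restores β-galactosidase activity measured by chemiluminescence.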 Conditions: for EC50: EC50, F508del-CFTR cell surface expression, U2OS cells, 16h compound incubation, geomean values; for Emax: U2OS, in relation to Emax of corrector lumacaftor (=100%), arithmetic mean values.
Chain of human F508del-CFTR (P13569 with tags, fused parts or gaps DEL508-508): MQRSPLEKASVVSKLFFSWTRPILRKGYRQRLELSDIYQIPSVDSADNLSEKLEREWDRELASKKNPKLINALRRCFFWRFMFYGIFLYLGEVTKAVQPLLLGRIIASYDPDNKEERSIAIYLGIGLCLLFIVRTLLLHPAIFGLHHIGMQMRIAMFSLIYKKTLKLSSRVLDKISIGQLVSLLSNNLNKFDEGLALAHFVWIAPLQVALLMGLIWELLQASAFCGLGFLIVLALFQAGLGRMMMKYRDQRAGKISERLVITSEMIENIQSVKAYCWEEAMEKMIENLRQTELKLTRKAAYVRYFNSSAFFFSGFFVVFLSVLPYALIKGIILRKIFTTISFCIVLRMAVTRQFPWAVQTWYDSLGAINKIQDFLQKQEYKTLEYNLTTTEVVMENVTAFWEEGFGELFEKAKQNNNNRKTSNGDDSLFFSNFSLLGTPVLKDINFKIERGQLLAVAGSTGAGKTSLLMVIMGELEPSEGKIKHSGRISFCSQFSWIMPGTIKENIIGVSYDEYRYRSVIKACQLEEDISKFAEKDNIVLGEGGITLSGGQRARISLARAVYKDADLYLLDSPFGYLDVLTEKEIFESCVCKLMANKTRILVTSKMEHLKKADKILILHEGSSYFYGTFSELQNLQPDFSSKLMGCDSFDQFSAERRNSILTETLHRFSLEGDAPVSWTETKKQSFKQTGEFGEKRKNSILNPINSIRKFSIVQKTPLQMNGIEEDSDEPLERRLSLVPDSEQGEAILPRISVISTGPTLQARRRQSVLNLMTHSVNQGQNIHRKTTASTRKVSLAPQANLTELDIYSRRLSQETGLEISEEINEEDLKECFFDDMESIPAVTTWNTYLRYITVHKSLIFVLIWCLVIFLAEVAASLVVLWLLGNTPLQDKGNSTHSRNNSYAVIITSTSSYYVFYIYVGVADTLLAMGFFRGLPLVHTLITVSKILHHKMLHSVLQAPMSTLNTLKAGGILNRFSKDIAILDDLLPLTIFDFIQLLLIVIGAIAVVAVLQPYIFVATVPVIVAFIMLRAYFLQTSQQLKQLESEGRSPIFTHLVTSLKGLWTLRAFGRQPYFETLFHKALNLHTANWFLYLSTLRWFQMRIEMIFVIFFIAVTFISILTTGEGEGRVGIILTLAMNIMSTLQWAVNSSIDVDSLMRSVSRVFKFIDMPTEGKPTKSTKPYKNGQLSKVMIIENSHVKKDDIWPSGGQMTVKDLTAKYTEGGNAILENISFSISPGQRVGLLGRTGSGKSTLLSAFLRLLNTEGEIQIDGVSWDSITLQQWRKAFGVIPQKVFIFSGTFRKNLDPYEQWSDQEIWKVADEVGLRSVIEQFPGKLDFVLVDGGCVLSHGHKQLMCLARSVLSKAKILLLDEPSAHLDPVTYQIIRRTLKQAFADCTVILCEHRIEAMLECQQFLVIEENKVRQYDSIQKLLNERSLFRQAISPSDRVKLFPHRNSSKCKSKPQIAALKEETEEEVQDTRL

Consider `CCOc1cccc(CCNC(=O)[C@@H]2CC(=O)N(C)[C@@H](CC(C)C)C(=O)N3CCN(C4CC4)C[C@@H]3C(=O)N[C@H](Cc3ccccc3)COc3cnc4ccccc4c3C(=O)N2)c1` [Example 400, (9S,13S,19aR,22R)-22-benzyl-18-cyclopropyl-N-(3-ethoxyphenethyl)-13-isobutyl-12-methyl-7,11,14,20-tetraoxo-7,8,9,10,11,12,13,14,17,18,19,19a,20,21,22,23-hexadecahydro-16H-pyrazino[2′,11:6,7][1]oxa[4,7,10,14]tetraazacycloheptadecino[17,16-c]quinoline-9-carboxamide], for which the EC50 – broadly, the concentration that produces a half-maximal response – was determined as 164 nM and the Emax (commonly the maximal effect, on the per cent scale that the assay sets) is 292%.

On to `CCOc1cccc(CCNC(=O)[C@@H]2CC(=O)N(C)[C@@H](CC(C)C)C(=O)N3CCN(C4CC4)C[C@H]3C(=O)N[C@H](Cc3ccccc3)COc3cnc4ccccc4c3C(=O)N2)c1` [Example 401, (9S,13S,19aS,22R)-22-benzyl-18-cyclopropyl-N-(3-ethoxyphenethyl)-13-isobutyl-12-methyl-7,11,14,20-tetraoxo-7,8,9,10,11,12,13,14,17,18,19,19a,20,21,22,23-hexadecahydro-16H-pyrazino[2′,1′:6,7][1]oxa[4,7,10,14]tetraazacycloheptadecino[17,16-c]quinoline-9-carboxamide], for which the EC50 was 559 nM and the Emax worked out at 189%.

In the case of `Cc1cc(CCNC(=O)[C@@H]2CC(=O)N(C)[C@@H](CC(C)C)C(=O)N3CCN(C4CC4)C[C@@H]3C(=O)N[C@H](Cc3ccccc3)COc3cnc4ccccc4c3C(=O)N2)on1` [Example 402, (9S,13S,19aR,22R)-22-benzyl-18-cyclopropyl-13-isobutyl-12-methyl-N-(2-(3-methylisoxazol-5-yl)ethyl)-7,11,14,20-tetraoxo-7,8,9,10,11,12,13,14,17,18,19,19a,20,21,22,23-hexadecahydro-16H-pyrazino[2′,11:6,7][1]oxa[4,7,10,14]tetraazacycloheptadecino[17,16-c]quinoline-9-carboxamide], the EC50 turned out to be 305 nM and the Emax stood at 314%.

For `Cc1cc(CCNC(=O)[C@@H]2CC(=O)N(C)[C@@H](CC(C)C)C(=O)N3CCN(C4CC4)C[C@H]3C(=O)N[C@H](Cc3ccccc3)COc3cnc4ccccc4c3C(=O)N2)on1` [Example 403, (9S,13S,19aS,22R)-22-benzyl-18-cyclopropyl-13-isobutyl-12-methyl-N-(2-(3-methylisoxazol-5-yl)ethyl)-7,11,14,20-tetraoxo-7,8,9,10,11,12,13,14,17,18,19,19a,20,21,22,23-hexadecahydro-16H-pyrazino[2′,11:6,7][1]oxa[4,7,10,14]tetraazacycloheptadecino[17,16-c]quinoline-9-carboxamide], the 50% effective concentration (EC50) was determined as 550 nM and the Emax is 179%.

Take `CC(C)C[C@H]1C(=O)N2CCN(C3CC3)C[C@@H]2C(=O)N[C@H](Cc2ccccc2)COc2cnc3ccccc3c2C(=O)N[C@H](C(=O)NCCc2nc3c(s2)CCC3)CC(=O)N1C` [Example 404, (9S,13S,19aR,22R)-22-benzyl-18-cyclopropyl-N-(2-(5,6-dihydro-4H-cyclopenta[d]thiazol-2-yl)ethyl)-13-isobutyl-12-methyl-7,11,14,20-tetraoxo-7,8,9,10,11,12,13,14,17,18,19,19a,20,21,22,23-hexadecahydro-16H-pyrazino[2′,11:6,7][1]oxa[4,7,10,14]tetraazacycloheptadecino[17,16-c]quinoline-9-carboxamide]: the EC50 was found to be 157 nM and the Emax came to 254%.

With `CC(C)C[C@H]1C(=O)N2CCN(C3CC3)C[C@H]2C(=O)N[C@H](Cc2ccccc2)COc2cnc3ccccc3c2C(=O)N[C@H](C(=O)NCCc2nc3c(s2)CCC3)CC(=O)N1C` [Example 405, (9S,13S,19aS,22R)-22-benzyl-18-cyclopropyl-N-(2-(5,6-dihydro-4H-cyclopenta[d]thiazol-2-yl)ethyl)-13-isobutyl-12-methyl-7,11,14,20-tetraoxo-7,8,9,10,11,12,13,14,17,18,19,19a,20,21,22,23-hexadecahydro-16H-pyrazino[2′,1′:6,7][1]oxa[4,7,10,14]tetraazacycloheptadecino[17,16-c]quinoline-9-carboxamide], the half-maximal effective concentration (EC50) came to 343 nM and the Emax was 171%.

Regarding `COc1cccc(CCNC(=O)[C@@H]2CC(=O)N(C)[C@@H](CC(C)C)C(=O)N3CCCC[C@@H]3C(=O)N[C@H](Cc3ccccc3)COc3cc4oc(C)nc4cc3C(=O)N2)c1` [Example 406, (7S,11S,21R,23aR)-21-benzyl-7-isobutyl-N-(3-methoxyphenethyl)-8,16-dimethyl-6,9,13,23-tetraoxo-1,3,4,6,7,8,9,10,11,12,13,20,21,22,23,23a-hexadecahydro-2H-oxazolo[5′,4′:4,5]benzo[1,2-p]pyrido[2,1-f][1]oxa[4,7,10,14]tetraazacycloheptadecine-11-carboxamide], the EC50 was 409 nM and the Emax worked out at 173%.

For `COc1cccc(CCNC(=O)[C@@H]2CC(=O)N(C)[C@@H](CC(C)C)C(=O)N3CCOC[C@@H]3C(=O)N[C@H](Cc3ccccc3)COc3cc4oc(C)nc4cc3C(=O)N2)c1` [Example 407], the EC50 was found to be 684 nM and the Emax amounted to 123%.

Consider `CC(C)C[C@H]1C(=O)N(C)CC(=O)N[C@H](Cc2ccccc2)COc2ccc3c(c2C(=O)N[C@H](C(=O)NCCc2ccc4c(c2)OCO4)CC(=O)N1C)OC(F)(F)O3` [Example 408, (8R,14S,18S)-N-(2-(benzo[d][1,3]dioxol-5-yl)ethyl)-8-benzyl-2,2-difluoro-14-isobutyl-12,15-dimethyl-10,13,16,20-tetraoxo-7,8,9,10,11,12,13,14,15,16,17,18,19,20-tetradecahydro-[1,3]dioxolo[4′,5′:5,6]benzo[1,2-p][1]oxa[4,7,10,14]tetraazacycloheptadecine-18-carboxamide], for which the EC50 came out at 241 nM and the Emax was found to be 134%.

As for `COc1cccc(CCNC(=O)[C@@H]2CC(=O)N(C)[C@@H](CC(C)C)C(=O)N(C)CC(=O)N[C@H](Cc3ccccc3)COc3ccc4c(c3C(=O)N2)OC(F)(F)O4)c1` [Example 409, (8R,14S,18S)-8-benzyl-2,2-difluoro-14-isobutyl-N-(3-methoxyphenethyl)-12,15-dimethyl-10,13,16,20-tetraoxo-7,8,9,10,11,12,13,14,15,16,17,18,19,20-tetradecahydro-[1,3]dioxolo[4′,5′:5,6]benzo[1,2-p][1]oxa[4,7,10,14]tetraazacycloheptadecine-18-carboxamide], the EC50 was 214 nM and the Emax was 144%.

As for `Cc1cc(CCNC(=O)[C@@H]2CC(=O)N(C)[C@@H](CC(C)C)C(=O)N(CCC3CCCCC3)CC(=O)N[C@H](Cc3ccccc3)COc3ccc4nc(C)oc4c3C(=O)N2)on1` [Example 410, (8R,14S,18S)-8-benzyl-12-(2-cyclohexylethyl)-14-isobutyl-2,15-dimethyl-N-(2-(3-methylisoxazol-5-yl)ethyl)-10,13,16,20-tetraoxo-7,8,9,10,11,12,13,14,15,16,17,18,19,20-tetradecahydrooxazolo[4′,5′:5,6]benzo[1,2-p][1]oxa[4,7,10,14]tetraazacycloheptadecine-18-carboxamide], the EC50 turned out to be 129 nM and the Emax turned out to be 269%.

As for `Cc1cc(CCNC(=O)[C@@H]2CC(=O)N(C)[C@@H](CC(C)C)C(=O)N(CCC3CCCCC3)CC(=O)N[C@H](Cc3ccccc3)COc3cnc4c(F)cccc4c3C(=O)N2)on1` [Example 411, (3S,7S,13R)-13-benzyl-9-(2-cyclohexylethyl)-18-fluoro-7-isobutyl-6-methyl-N-(2-(3-methylisoxazol-5-yl)ethyl)-1,5,8,11-tetraoxo-1,2,3,4,5,6,7,8,9,10,11,12,13,14-tetradecahydro-[1]oxa[4,7,10,14]tetraazacycloheptadecino[17,16-c]quinoline-3-carboxamide], the EC50 is 138 nM and the Emax was determined as 250%.

`COc1cccc(CCNC(=O)[C@@H]2CC(=O)N(C)[C@@H](CC(C)C)C(=O)N3CCOC[C@@H]3C(=O)N[C@H](Cc3ccccc3)COc3cnc4ccccc4c3C(=O)N2)c1` [Example 412, (9S,13S,19aR,22R)-22-benzyl-13-isobutyl-N-(3-methoxyphenethyl)-12-methyl-7,11,14,20-tetraoxo-7,8,9,10,11,12,13,14,16,17,19,19a,20,21,22,23-hexadecahydro-[1,4]oxazino[3′,4′:6,7][1]oxa[4,7,10,14]tetraazacycloheptadecino[17,16-c]quinoline-9-carboxamide]: the EC50 worked out at 377 nM and the Emax was 291%.

Regarding `COc1cccc(CCNC(=O)[C@@H]2CC(=O)N(C)[C@@H](CC(C)C)C(=O)N3CCOC[C@H]3C(=O)N[C@H](Cc3ccccc3)COc3cnc4ccccc4c3C(=O)N2)c1` [Example 413, (9S,13S,19aS,22R)-22-benzyl-13-isobutyl-N-(3-methoxyphenethyl)-12-methyl-7,11,14,20-tetraoxo-7,8,9,10,11,12,13,14,16,17,19,19a,20,21,22,23-hexadecahydro-[1,4]oxazino[3′,4′:6,7][1]oxa[4,7,10,14]tetraazacycloheptadecino[17,16-c]quinoline-9-carboxamide], the EC50 came out at 557 nM and the Emax is 129%.

With `COCCN1CCN2C(=O)[C@H](CC(C)C)N(C)C(=O)C[C@@H](C(=O)NCCc3cccc(OC(F)F)c3)NC(=O)c3c(cnc4ccccc34)OC[C@@H](Cc3ccccc3)NC(=O)[C@H]2C1` [Example 414, (9S,13S,19aR,22R)-22-benzyl-N-(3-(difluoromethoxy)phenethyl)-13-isobutyl-18-(2-methoxyethyl)-12-methyl-7,11,14,20-tetraoxo-7,8,9,10,11,12,13,14,17,18,19,19a,20,21,22,23-hexadecahydro-16H-pyrazino[2′,1′:6,7][1]oxa[4,7,10,14]tetraazacycloheptadecino[17,16-c]quinoline-9-carboxamide], the EC50 worked out at 372 nM and the Emax was determined as 251%.
